US20020173468A1, “MODIFIED CYTOSTATIC AGENTS” (priority 1996, published 2002)
Structures can show the parent of a compound that is named as a salt.

Key:
Format in all cases: cell-based
[1] = system: mouse bone marrow stem cells; experiment: Inhibition of the CSF-induced proliferation of mouse bone marrow stem cells (colony formation); conditions: recombinant murine GM-CSF, 7 days; for IC50: Mus musculus, 168 h
Protocol: 2. Haematopoietic Activity of Conjugates in Comparison with the Basic Active Compound
Bone marrow cells were rinsed from mouse femurs. 10^5 cells were incubated in McCoy 5A medium (0.3% agar) together with recombinant murine GM-CSF (Genzyme; stem cell colony formation) and the substances (10^−4 to 100 μg/ml) at 37° C. and 7% CO2. 7 days later, the colonies ([…]50 cells) and clusters (17-50 cells) were counted.

[2] = system: SW 480 human colonic tumour cell line; experiment: Growth inhibition test (MTT) for cytotoxic properties, SW 480; conditions: SW 480 cells
Protocol: (§1) 1. Growth Inhibition Test for the Determination of Cytotoxic Properties
(§2) They were then trypsinized and taken up in RPMI plus 10% FCS to give a cell count of 50,000 cells/ml. 100 μl of cell suspension/well were added to a 96 microwell plate and incubated for 1 day at 37° C. in a CO2 incubator. A further 100 μl of RPMI medium and 1 μl of DMSO were then added with the test substances. The growth was checked after day 3 and day 6. To do this, 40 μl of MTT solution (3-(4,5-dimethylthiazol-2-yl)-2,5-diphenyl-tetrazolin bromide) were added to each microwell at a starting concentration of 5 mg/ml of H2O. Incubation was carried out at 37° C. for 5 hours in the CO2 incubator. The medium was then aspirated and 100 μl of i-propanol/well were added. After shaking for 30 min with 100 μl of H2O, the extinction was measured at 540 nm using a Titertek Multiskan MCC/340 (flow).
(§3) The cytotoxic action is indicated in Table 1 as an IC50 value in each case for the SW 480 and HT 29 and B16F10 cell lines: […]

[3] = system: HT 29 human colonic tumour cell line; experiment: Growth inhibition test (MTT) for cytotoxic properties, HT 29; conditions: HT 29 cells
Protocol: as §1, §2, §3

[4] = system: B16F10 mouse melanoma cell line; experiment: Growth inhibition test (MTT) for cytotoxic properties, B16F10; conditions: B16F10 cells
Protocol: as §1, §2, §3

N[C@@H]1C=CC[C@@H]2CN(c3c(F)cc4c(=O)c(C(=O)O)cn(C5CC5)c4c3Cl)C[C@@H]21 (racemic) [Quinolone-a, 7-[(3aRS, 4RS, 7aSR)-4-amino-1,3,3a,4,7,7a-hexahydro-iso-indol-2-yl]-8-chloro-1-cyclopropyl-6-fluoro-1,4-dihydro-4-oxo-3-quinolinecarboxylic acid, reference compound]
IC50 [1]: 0.2 ng/mL

Cl.NCCCCC(NC(=S)Nc1ccc(O)cc1)C(=O)NC1C=CCC2CN(c3c(F)cc4c(=O)c(C(=O)O)cn(C5CC5)c4c3Cl)CC21 (racemic) [2.4), N-[N^α-(4-Hydroxy-phenylamino-thiocarbonyl)-lysyl]-quinolone-a, hydrochloride]
IC50 [2]: 800 nM | IC50 [3]: 900 nM | IC50 [4]: 1000 nM | IC50, inhibition of the CSF-induced proliferation of mouse bone marrow stem cells [1]: 60.0 ng/mL

CCc1c2c(nc3ccccc13)-c1cc3c(c(=O)n1C2)COC(=O)C3(CC)OC(=O)C(NC(=O)C(CCCCN)NC(=S)Nc1ccc(O)cc1)C(C)C (stereo not drawn) [5.2), 7-Ethyl-20-O-[N^α-(4-hydroxy-phenylamino-thiocarbonyl)-lysyl-valyl]-camptothecin, hydrochloride]
IC50 [2]: 500 nM | IC50 [3]: 300 nM | IC50 [4]: 900 nM

CC[C@@]1(OC(=O)C(NC(=O)C(CCCCN)NC(=S)Nc2ccccc2O)C(C)C)C(=O)OCc2c1cc1n(c2=O)Cc2cc3ccccc3nc2-1 (stereo partly drawn) [4.13), 20-O-[N^α-(2-Hydroxy-phenylamino-thiocarbonyl)-lysyl-valyl]-camptothecin, hydrochloride]
IC50 [2]: 60 nM | IC50 [3]: 40 nM | IC50 [4]: 200 nM

NCCC(NC(=S)Nc1ccc(O)cc1)C(=O)NC1C=CCC2CN(c3c(F)cc4c(=O)c(C(=O)O)cn(C5CC5)c4c3Cl)CC21 (racemic) [2.3), N-[N^α-(4-Hydroxy-phenylamino-thiocarbonyl)-α,γ-diaminobutyryl]-quinolone-a, hydrochloride]
IC50 [2]: 900 nM | IC50 [3]: 700 nM | IC50 [4]: 200 nM

CC(NC(=S)Nc1ccc(O)cc1)C(=O)NC1C=CCC2CN(c3c(F)cc4c(=O)c(C(=O)O)cn(C5CC5)c4c3Cl)CC21 (racemic) [2.2), N-[N-(4-Hydroxy-phenylamino-thiocarbonyl)-D-alanyl]-quinolone-a]
IC50 [2]: 15000 nM | IC50 [3]: 6000 nM | IC50 [4]: 4000 nM

CCC1(OC(=O)C(NC(=O)C(CCCCN)NC(=S)Nc2cccc(OC)c2)C(C)C)C(=O)OCc2c1cc1n(c2=O)Cc2cc3ccccc3nc2-1 (stereo not drawn) [4.15), 20-O-[N^α-(3-Methoxy-phenylamino-thiocarbonyl)-lysyl-valyl]-camptothecin, hydrochloride]
IC50 [2]: 90 nM | IC50 [3]: 60 nM | IC50 [4]: 200 nM

C[C@@H](NC(=O)[C@H](CCCCN)NC(=S)Nc1ccc(O)cc1)C(=O)Nc1ccc2nc3n(c(=O)c2c1)Cc1ccccc1-3 [1.4), N-[N^α-(4-Hydroxy-phenylamino-thiocarbonyl)-lysyl-D-alanyl]-batracylin]
IC50 [2]: 40000 nM | IC50 [3]: 40000 nM | IC50 [4]: 30000 nM

NCCCCC(NC(=S)Nc1ccc(C(=O)O)cc1)C(=O)NC1C=CCC2CN(c3c(F)cc4c(=O)c(C(=O)O)cn(C5CC5)c4c3Cl)CC21 (racemic) [2.9), N-[N^α-(4-Carboxy-phenylamino-thiocarbonyl)-lysyl]-quinolone-a]
IC50 [2]: 2000 nM | IC50 [3]: 2000 nM | IC50 [4]: 1000 nM

CC[C@@]1(O)C(=O)OCc2c1cc1n(c2=O)Cc2cc3ccccc3nc2-1 [Camptothecin, 20(S)-Camptothecin, reference compound]
IC50 [1]: 0.4 ng/mL

CCC1(OC(=O)[C@@H](NC(=O)[C@H](CCCCN)NC(=S)Nc2ccc(OC)cc2)C(C)C)C(=O)OCc2c1cc1n(c2=O)Cc2cc3ccccc3nc2-1 (stereo partly drawn) [4.14), 20-O-[N^α-(4-Methoxy-phenylamino-thiocarbonyl)-lysyl-valyl]-camptothecin, hydrochloride]
IC50 [2]: 160 nM | IC50 [3]: 75 nM | IC50 [4]: 750 nM

CCc1c2c(nc3ccc(O)cc13)-c1cc3c(c(=O)n1C2)COC(=O)C3(CC)OC(=O)[C@@H](NC(=O)[C@H](CCCCN)NC(=S)Nc1ccc(O)cc1)C(C)C (stereo partly drawn) [8), 7-Ethyl-10-hydroxy-20-O-[N^α-(4-hydroxy-phenylamino-thiocarbonyl)-lysyl-valyl]-camptothecin, hydrochloride]
IC50 [2]: 150 nM | IC50 [3]: 200 nM | IC50 [4]: 3000 nM

CC(NC(=O)C(CCCCN)NC(=S)Nc1ccc(O)cc1)C(=O)NC1C=CCC2CN(c3c(F)cc4c(=O)c(C(=O)O)cn(C5CC5)c4c3Cl)CC21 (racemic) [2.11), N-[N^α-(4-Hydroxy-phenylamino-thiocarbonyl)-lysyl-D-alanyl]-quinolone-a]
IC50 [2]: 60000 nM | IC50 [3]: 150000 nM | IC50 [4]: 30000 nM

CCc1c2c(nc3ccccc13)-c1cc3c(c(=O)n1C2)COC(=O)C3(CC)OC(=O)C(C)NC(=O)C(CCCCNC(=S)Nc1ccc(O)cc1)NC(=S)Nc1ccc(O)cc1 (stereo not drawn) [5.1), 7-Ethyl-20-O-[N^α,N^ε-bis-(4-hydroxy-phenylamino-thiocarbonyl)-lysyl-alanyl]-camptothecin]
IC50 [2]: 25 nM | IC50 [3]: 20 nM | IC50 [4]: 50 nM

CCC1(O)C(=O)OCc2c1cc1n(c2=O)Cc2c-1nc1ccccc1c2COC(=O)[C@@H](NC(=O)[C@H](CCCCN)NC(=S)Nc1ccc(O)cc1)C(C)C (stereo partly drawn) [7), 7-[N^α-(4-Hydroxy-phenylamino-thiocarbonyl)-lysyl-valyloxymethyl]-camptothecin, hydrochloride]
IC50 [2]: 60 nM | IC50 [3]: 80 nM | IC50 [4]: 1000 nM

CC[C@@]1(OC(=O)C(NC(=O)C(CCCCN)NC(=S)Nc2ccc(Cl)cc2)C(C)C)C(=O)OCc2c1cc1n(c2=O)Cc2cc3ccccc3nc2-1 (stereo partly drawn) [4.6), 20-O-[N^α-(4-Chloro-phenylamino-thiocarbonyl)-lysyl-valyl]-camptothecin, hydrochloride]
IC50 [2]: 200 nM | IC50 [3]: 150 nM | IC50 [4]: 500 nM

CCC1(OC(=O)C(NC(=O)C(CCCCN)NC(=S)Nc2ccc(N)cc2)C(C)C)C(=O)OCc2c1cc1n(c2=O)Cc2cc3ccccc3nc2-1 (stereo not drawn) [4.18), 20-O-[N^α-(4-Amino-phenylamino-thiocarbonyl)-lysyl-valyl]-camptothecin, hydrochloride]
IC50 [2]: 300 nM | IC50 [3]: 120 nM | IC50 [4]: 400 nM

NCCCCC(NC(=S)Nc1ccc(N=C=S)cc1)C(=O)NC1C=CCC2CN(c3c(F)cc4c(=O)c(C(=O)O)cn(C5CC5)c4c3Cl)CC21 (racemic) [2.8), N-[N^α-(4-Isothiocyanato-phenylamino-thiocarbonyl)-lysyl]-quinolone-a]
IC50 [2]: 200 nM | IC50 [3]: 100 nM | IC50 [4]: 100 nM

CCC1(OC(=O)C(C)NC(=O)C(CCCCNC(=S)Nc2ccc(O)cc2)NC(=S)Nc2ccc(O)cc2)C(=O)OCc2c1cc1n(c2=O)Cc2cc3ccccc3nc2-1 (stereo not drawn) [4.9), 20-O-[N^α,N^ε-bis-(4-Hydroxy-phenylamino-thiocarbonyl)-lysyl-alanyl]-camptothecin]
IC50 [2]: 20 nM | IC50 [3]: 15 nM | IC50 [4]: 200 nM | IC50, inhibition of the CSF-induced proliferation of mouse bone marrow stem cells [1]: 22 ng/mL
